In brackets after ≈: the same amount, converted by molar mass.

The test system of data set [1] is OVCAR-3. As to conditions: day 300, OVCAR-3-bearing SCID mice; cited from earlier work.
The nature of data set [2]: Solubility in Miglyol 812. In kind it is physicochemical. As to conditions: Miglyol 812, oil or lipid.

Consider `CCCCCCCCCCCCCCC(Br)C(=O)O[C@@H](C(=O)O[C@H]1C[C@@]2(O)[C@@H](OC(=O)c3ccccc3)[C@@H]3[C@]4(OC(C)=O)CO[C@@H]4C[C@H](O)[C@@]3(C)C(=O)[C@H](O)C(=C1C)C2(C)C)[C@@H](NC(=O)OC(C)(C)C)c1ccccc1` (some centres unmarked) [2′-(2-bromo)-hexadecanoyl DX], for which, in data set [1], the Survival is 100%.

By solubility is commonly meant how much of the substance goes into solution per volume. A higher solubility goes with a readily soluble substance. As for `CC(=O)O[C@@]12CO[C@@H]1C[C@H](O)[C@@]1(C)C(=O)[C@H](O)C3=C(C)[C@@H](OC(=O)[C@H](O)[C@@H](NC(=O)OC(C)(C)C)c4ccccc4)C[C@@](O)([C@@H](OC(=O)c4ccccc4)[C@H]21)C3(C)C` [DX, Docetaxel], the concentration in solution in data set [2] (solubility) was 36.11 ± 0.1 mg/mL (≈ 44.7 mM).

The record behind these values is article PMC3205148 (International Journal of Nanomedicine, 2011).
